The values below come from EP4799624A2 (priority 2021, dated 2023).

A short description of this data set: in vivo. Particulars: mouse, po.

`Cc1c(-c2ccc(O)cc2)n(Cc2ccc(OCCN3CCCCC3)cc2)c2ccc(O)cc12` [Pipendoxifene, 2-(4-hydroxyphenyl)-3-methyl-1-[[4-(2-piperidin-1-ylethoxy)phenyl]methyl]indol-5-ol] returned an NOAEL of at least 750 mg/kg/day.

In general, NOAEL refers to the highest tested level that showed no adverse finding.
